Here are results for 15 compounds from US20260167623A1 (NIKANG THERAPEUTICS, INC., priority 2022, published 2026).

Experiment [1] concerns the target T1, CDK2 (Homo sapiens, UniProt P24941).
T1 construct: High-Throughput Measurement of Cellular Endogenous CDK2; endogenous in cells; host or cells: OVCAR3
Put plainly: Inhibition of CDK2: phospho-Rb (S807/811) HTRF measurement in OVCAR3 cells, 24 h. Type of experiment: cell-based. The following applies: 24 h compound treatment, read-out: pRB_OVCAR3_24h. Summed up:
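IC50 came from a four-parameter fit of DMSO-normalized TR-FRET ratios (665/620 nm) reporting phospho-Rb S807/811. Lysates were taken from OVCAR3 cultures treated 24 h with compound (0.3 to 10,000 nM) and incubated 4 h at room temperature with the antibody pair.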
In general terms: TR-FRET usually uses a lanthanide donor and a delayed reading to cut background.

The target in experiment [2] is T1, CDK2. The experiment is described as follows: High-throughput HTRF measurement of cellular endogenous CDK2 level (degradation, DC50/Dmax) in OVCAR3 cells, 6 h. The format is cell-based. The note with it: 6 h compound treatment, HTRF total CDK2, read-out: DC50_OVCAR3_6h. As for the experimental part: High-Throughput Measurement of Cellular Endogenous CDK2
Effects of compounds on cellular CDK2 level were monitored by a high-throughput HTRF assay.
To determine half maximal degradation concentration (DC50) and maximum degradation level (Dmax) values of compounds, cellular CDK2 level was measured in 96-well format using HTRF total CDK2 cellular kit (Cat #64CDK2TPEG) from Cisbio.
On Day 1, OVCAR3 cells were seeded into 96-well tissue-culture treated plates at 20,000 cells/well in 200 μL and incubated overnight at 37° C. in CO2 atmosphere. On Day 2 cells were treated with compounds at concentration ranging from 0.03 to 1,000 nM using HP D300 digital dispenser. 6 hours after compound treatment, cell culture media was removed by flicking the plate and tapping the plate against clean paper towel. Immediately 30 μL 1× lysis buffer was supplemented from the kit and added to each well and the plate is incubated at room temperature on shaker for 30 min. After homogenization by pipetting up and down, 8 μL cell lysate from 96-well cell culture plate was transferred to 384-well small volume white detection plate. 2 μL premixed detection solution was added and the plate is covered with sealer. To prepare the detection solution, d2 conjugated-CDK2 antibody and Eu-cryptate conjugated CDK2 antibody were diluted into detection buffer following manufacturer's instruction. Detection plates were incubated overnight at room temperature and read on ClarioStar (BMG Labtech) in TR-FRET mode (665 nM and 620 nM). The TR-FRET ratio (665 nM/620 nM) was plotted against the compound concentration and normalized to DMSO controls (0% degradation) and lysis buffer controls (100% degradation). Half maximal degradation concentration (DC 50) […] were calculated with a four-parameter logistic fit using GraphPad Prism (version 8; La Jolla, CA).
In the table below, AA indicates a DC50 of greater than or equal to 0.5 nM but less than 1 nM; A indicates a DC50 of greater than or equal to 1 nM but less than or equal to 10 nM; B indicates a DC50 of greater than 10 nM but less than or equal to 100 nM; C indicates a DC50 of greater than 100 nM but less than or equal to 1 μM; and D indicates a DC50 of greater than 1 μM […] but less than or equal to 5 μM. NT means not tested.

On to `Cn1nc(N2CCC(=O)NC2=O)c2ccc(C3CCN(CCCc4cccc(S(=O)(=O)N5CCC(Nc6ncc(OC(F)F)cn6)CC5)c4)CC3)cc21` [Example 86, 1-(6-(1-(3-(3-((4-((5-(difluoromethoxy)-pyrimidin-2-yl)amino)piperidin-1-yl)sulfonyl)phenyl)propyl)piperidin-4-yl)-1-methyl-1H-indazol-3-yl)dihydropyrimidine-2,4(1H,3H)-dione], for which the IC50 on CDK2 [1] fell in the range of 1 to 100 nM. In addition, the DC50 at CDK2 [2] lay in the range of 10 to 100 nM.
With `Cn1nc(N2CCC(=O)NC2=O)c2ccc(C3CCN(CCCc4cccc(S(=O)(=O)N5CCC(Nc6ncc(C(F)(F)F)cn6)CC5)c4)CC3)cc21` [Example 87, 1-(1-methyl-6-(1-(3-(3-((4-((5-(trifluoro-methyl)pyrimidin-2-yl)amino)piperidin-1-yl)sulfonyl)phenyl)propyl)piperidin-4-yl)-1H-indazol-3-yl)dihydropyrimidine-2,4(1H,3H)-dione], at CDK2 [1], the IC50 lay within 1 to 100 nM. Besides, the DC50 on CDK2 [2] was in the range of 1 to 10 nM.
On to `Cn1nc(N2CCC(=O)NC2=O)c2ccc(C3CCN(CC4CCN(c5cccc(S(=O)(=O)N6CCC(Nc7ncc(C(F)(F)F)cn7)CC6)c5)CC4)CC3)c(Cl)c21` [Example 89, 1-(7-chloro-1-methyl-6-(1-((1-(3-((4-((5-(trifluoromethyl)pyrimidin-2-yl)amino)-piperidin-1-yl)sulfonyl)phenyl)piperidin-4-yl)methyl)piperidin-4-yl)-1H-indazol-3-yl)dihydropyrimidine-2,4(1H,3H)-dione], for which, at CDK2 [1], the IC50 lay in the range of 1 to 100 nM. Further, the DC50 on CDK2 [2] lay in the range of 10 to 100 nM.
Regarding `O=C1CCN(c2nn(CC(F)(F)F)c3cc(C4CCN(CC5CCN(c6cccc(S(=O)(=O)N7CCC(Nc8ncc(C(F)(F)F)cn8)CC7)c6)CC5)CC4)ccc23)C(=O)N1` [Example 91, 1-(1-(2,2,2-trifluoroethyl)-6-(1-((1-(3-((4-((5-(trifluoromethyl)pyrimidin-2-yl)amino)piperidin-1-yl)sulfonyl)phenyl)-piperidin-4-yl)methyl)piperidin-4-yl)-1H-indazol-3-yl)dihydropyrimidine-2,4(1H,3H)-dione], on CDK2 [1], the IC50 was 100 to 500 nM. Also, the DC50 on CDK2 [2] lay in the range of 10 to 100 nM.
For the compound `O=C1CCC(N2Cc3cc(N4CCC(N5CC(Oc6cccc(S(=O)(=O)N7CCC(Nc8ncc(C(F)(F)F)cn8)CC7)c6)C5)CC4)ccc3C2=O)C(=O)N1` (stereo not drawn) [Example 92, 3-(1-oxo-5-(4-(3-(3-((4-((5-(trifluoro-methyl)pyrimidin-2-yl)amino)piperidin-1-yl)sulfonyl)phenoxy)azetidin-1-yl)piperidin-1-yl)isoindolin-2-yl)piperidine-2,6-dione], the IC50 at CDK2 [1] lay in the range of 100 to 500 nM. Also, the DC50 at CDK2 [2] is 1 to 10 nM.
In the case of `Cn1nc(N2CCC(=O)NC2=O)c2ccc(C3CCN(Cc4cccc(S(=O)(=O)N5CCC(Nc6ncc(OC(F)F)cn6)CC5)c4)CC3)c(F)c21` [Example 93, 1-(6-(1-(3-((4-((5-(difluoromethoxy)-pyrimidin-2-yl)amino)piperidin-1-yl)sulfonyl)benzyl)piperidin-4-yl)-7-fluoro-1-methyl-1H-indazol-3-yl)dihydropyrimidine-2,4(1H,3H)-dione], the IC50 on CDK2 [1] fell in the range of 1 to 100 nM. Moreover, the DC50 at CDK2 [2] fell in the range of 1 to 10 nM.
With `Cn1nc(N2CCC(=O)NC2=O)c2ccc(C3CCN(CC4CCN(c5cccc(S(=O)(=O)N6CCC(Nc7ncc(C(F)(F)F)cn7)CC6)c5)CC4)CC3)c(F)c21` [Example 94, 1-(7-fluoro-1-methyl-6-(1-((1-(3-((4-((5-(trifluoromethyl)pyrimidin-2-yl)amino)-piperidin-1-yl)sulfonyl)phenyl)piperidin-4-yl)methyl)piperidin-4-yl)-1H-indazol-3-yl)dihydropyrimidine-2,4(1H,3H)-dione], the IC50 on CDK2 [1] was 1 to 100 nM. Further, the DC50 on CDK2 [2] was in the range of 10 to 100 nM.
Take `Cn1nc(N2CCC(=O)NC2=O)c2ccc(C3CCN(CC4CCN(c5cccc(S(=O)(=O)N6CCC(Nc7ncc(Cl)cn7)CC6)c5)CC4)CC3)c(F)c21` [Example 95, 1-(6-(1-((1-(3-((4-((5-chloropyrimidin-2-yl)amino)piperidin-1-yl)sulfonyl)phenyl)-piperidin-4-yl)methyl)piperidin-4-yl)-7-fluoro-1-methyl-1H-indazol-3-yl)dihydropyrimidine-2,4(1H,3H)-dione]: at CDK2 [1], the IC50 was in the range of 1 to 100 nM. On CDK2 [2], the DC50 fell in the range of 1 to 10 nM.
Regarding `Cn1nc(N2CCC(=O)NC2=O)c2cc(F)c(C3CCN(CC4CCN(c5cccc(S(=O)(=O)N6CCC(Nc7ncc(Cl)cn7)CC6)c5)CC4)CC3)cc21` [Example 99, 1-(6-(1-((1-(3-((4-((5-chloropyrimidin-2-yl)amino)piperidin-1-yl)sulfonyl)phenyl)-piperidin-4-yl)methyl)piperidin-4-yl)-5-fluoro-1-methyl-1H-indazol-3-yl)dihydropyrimidine-2,4(1H,3H)-dione], the IC50 at CDK2 [1] was in the range of 1 to 100 nM. For the same compound, on CDK2 [2], the DC50 was in the range of 10 to 100 nM.
On to `Cn1nc(N2CCC(=O)NC2=O)c2cc(F)c(C3CCN(CC4CCN(c5cccc(S(=O)(=O)N6CCC(Nc7ncc(C(F)(F)F)cn7)CC6)c5)CC4)CC3)cc21` [Example 100, 1-(5-fluoro-1-methyl-6-(1-((1-(3-((4-((5-(trifluoromethyl)pyrimidin-2-yl)amino)-piperidin-1-yl)sulfonyl)phenyl)piperidin-4-yl)methyl)piperidin-4-yl)-1H-indazol-3-yl)dihydropyrimidine-2,4(1H,3H)-dione], for which, at CDK2 [1], the IC50 lay within 1 to 100 nM. For the same compound, the DC50 at CDK2 [2] is 10 to 100 nM.
For `O=C1CCC(N2Cc3cc(N4CCC(N5CC(Oc6cccc(S(=O)(=O)N7CCC(Nc8ncc(Cl)cn8)CC7)c6)C5)CC4)ccc3C2=O)C(=O)N1` (stereo not drawn) [Example 105, 3-(5-(4-(3-(3-((4-((5-chloropyrimidin-2-yl)amino)piperidin-1-yl)sulfonyl)phenoxy)-azetidin-1-yl)piperidin-1-yl)-1-oxoisoindolin-2-yl)piperidine-2,6-dione], in that order: 100 to 500 nM and 10 to 100 nM.
Consider `Cn1c(=O)n(C2CCC(=O)NC2=O)c2cccc(C3CCN(CC4CCN(c5cccc(S(=O)(=O)N6CCC(Nc7ncc(C(F)(F)F)cn7)CC6)c5)CC4)CC3)c21` (stereo not drawn) [Example 107, 3-(3-methyl-2-oxo-4-(1-((1-(3-((4-((5-(trifluoromethyl)pyrimidin-2-yl)amino)-piperidin-1-yl)sulfonyl)phenyl)piperidin-4-yl)methyl)piperidin-4-yl)-2,3-dihydro-1H-benzo[d]imidazol-1-yl)piperidine-2,6-dione], for which, at CDK2 [1], the IC50 was 1 to 100 nM. Further, on CDK2 [2], the DC50 fell in the range of 1 to 10 nM.
In the case of `Cn1nc(N2CCC(=O)NC2=O)c2ccc(C3CCN(CC4CN(c5cccc(S(=O)(=O)N6CCC(Nc7ncc(C(F)(F)F)cn7)CC6)c5)C4)CC3)cc21` [Example 108, 1-(1-methyl-6-(1-((1-(3-((4-((5-(trifluoromethyl)pyrimidin-2-yl)amino)-piperidin-1-yl)sulfonyl)phenyl)azetidin-3-yl)methyl)piperidin-4-yl)-1H-indazol-3-yl)dihydropyrimidine-2,4(1H,3H)-dione], the IC50 at CDK2 [1] fell in the range of 1 to 100 nM. Moreover, the DC50 at CDK2 [2] fell in the range of 10 to 100 nM.
Consider `Cn1nc(N2CCC(=O)NC2=O)c2ccc(C3CCN(CC4CCN(c5cccc(S(=O)(=O)N6CCC(Nc7ncc(OC(F)(F)F)cn7)CC6)c5)CC4)CC3)cc21` [Example 115, 1-(1-methyl-6-(1-((1-(3-((4-((5-(trifluoro-methoxy)pyrimidin-2-yl)amino)piperidin-1-yl)sulfonyl)phenyl)piperidin-4-yl)methyl)piperidin-4-yl)-1H-indazol-3-yl)dihydropyrimidine-2,4(1H,3H)-dione], for which, at CDK2 [1], the IC50 lay within 1 to 100 nM. The DC50 on CDK2 [2] was 10 to 100 nM.
Take `C[C@@H]1CN(CC2CCN(c3cccc(S(=O)(=O)N4CCC(Nc5ncc(Cl)cn5)CC4)c3)CC2)CCN1c1ccc2c(N3CCC(=O)NC3=O)nn(C)c2c1` [Example 116, (R)-1-(6-(4-((1-(3-((4-((5-chloropyrimidin-2-yl)amino)piperidin-1-yl)sulfonyl)phenyl)-piperidin-4-yl)methyl)-2-methylpiperazin-1-yl)-1-methyl-1H-indazol-3-yl)dihydropyrimidine-2,4(1H,3H)-dione]: the IC50 on CDK2 [1] lay within 1 to 100 nM. Also, the DC50 at CDK2 [2] was in the range of 10 to 100 nM.
